Laboratory results taken from the supplement of paper PMC4862054.

Tested on: HCC1599
Settings: 72 h
Outline: (§1)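 Breast cancer cell lines in 20 µl suspension were seeded onto 384-well plates that already held compound dissolved in 5 µl medium and were incubated for 72 h. Viability was measured by adding 2.5 µl CellTiter-Blue for 2 h at 37 °C and reading fluorescence at 560/590 nm. Each plate was normalised to vehicle and a positive kill control and checked by Z'-factor. EC50 was taken from a fitted percent-inhibition dose-response curve, censored at the highest concentration, and rows with a drug sensitivity score of zero were removed.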

EC50, CellTiter-Blue viability [nM]	SMILES
3270	O=C(CCCCCCC(=O)Nc1ccccc1)NO [Vorinostat]

Tested on: MDA-MB-436
Settings: 72 h
Outline: as §1

SMILES	EC50, CellTiter-Blue viability [nM]
COc1ccc(S(=O)(=O)Nc2cccnc2Nc2ccc(O)cc2)cc1 [ABT-751]	776
CNC(=O)c1ccccc1Sc1ccc2c(/C=C/c3ccccn3)n[nH]c2c1 [Axitinib]	91.7
COc1cc(Nc2c(C#N)cnc3cc(OCCCN4CCN(C)CC4)c(OC)cc23)c(Cl)cc1Cl [Bosutinib]	3110
Cn1cc(C2=C(c3cn(C4CCN(Cc5ccccn5)CC4)c4ccccc34)C(=O)NC2=O)c2ccccc21 [Enzastaurin]	129
Nc1ccn([C@@H]2O[C@H](CO)[C@@H](O)C2(F)F)c(=O)n1 [Gemcitabine]	22.2
C/C(=C\c1csc(C)n1)[C@@H]1C[C@@H]2O[C@]2(C)CCC[C@H](C)[C@H](O)[C@@H](C)C(=O)C(C)(C)[C@@H](O)CC(=O)N1 [Ixabepilone]	173
CO[C@@]12[C@H](COC(N)=O)C3=C(C(=O)C(C)=C(N)C3=O)N1C[C@@H]1N[C@@H]12 [Mitomycin C]	2680
CC[C@H](CO)Nc1nc(NCc2ccccc2)c2ncn(C(C)C)c2n1 [Roscovitine]	2500

Results, then the compound that gave them:

EC50, CellTiter-Blue viability [nM]	SMILES
96.8	CC(=O)[C@]1(O)Cc2c(O)c3c(c(O)c2[C@@H](O[C@H]2C[C@H](N)[C@H](O)[C@H](C)O2)C1)C(=O)c1ccccc1C3=O [Idarubicin]
350	C=CCn1c(=O)c2cnc(Nc3ccc(N4CCN(C)CC4)cc3)nc2n1-c1cccc(C(C)(C)O)n1 [MK1775]
204	CO[C@@H]1[C@H](N(C)C(=O)c2ccccc2)C[C@H]2O[C@]1(C)n1c3ccccc3c3c4c(c5c6ccccc6n2c5c31)C(=O)NC4 [Midostaurin]
10.2	CCNC(=O)c1noc(-c2cc(C(C)C)c(O)cc2O)c1-c1ccc(CN2CCOCC2)cc1 [NVP-AUY922]

Tested on: CAL-120
Settings: 72 h
Outline: as §1

SMILES	EC50, CellTiter-Blue viability [nM]
COc1ccc(S(=O)(=O)Nc2cccnc2Nc2ccc(O)cc2)cc1 [ABT-751]	295
COc1cc(Nc2c(C#N)cnc3cc(OCCCN4CCN(C)CC4)c(OC)cc23)c(Cl)cc1Cl [Bosutinib]	1960
Nc1ccn([C@@H]2O[C@H](CO)[C@@H](O)C2(F)F)c(=O)n1 [Gemcitabine]	9.03
CC(=O)[C@]1(O)Cc2c(O)c3c(c(O)c2[C@@H](O[C@H]2C[C@H](N)[C@H](O)[C@H](C)O2)C1)C(=O)c1ccccc1C3=O [Idarubicin]	42.2
C/C(=C\c1csc(C)n1)[C@@H]1C[C@@H]2O[C@]2(C)CCC[C@H](C)[C@H](O)[C@@H](C)C(=O)C(C)(C)[C@@H](O)CC(=O)N1 [Ixabepilone]	333
C=CCn1c(=O)c2cnc(Nc3ccc(N4CCN(C)CC4)cc3)nc2n1-c1cccc(C(C)(C)O)n1 [MK1775]	301
CO[C@@H]1[C@H](N(C)C(=O)c2ccccc2)C[C@H]2O[C@]1(C)n1c3ccccc3c3c4c(c5c6ccccc6n2c5c31)C(=O)NC4 [Midostaurin]	591
CO[C@@]12[C@H](COC(N)=O)C3=C(C(=O)C(C)=C(N)C3=O)N1C[C@@H]1N[C@@H]12 [Mitomycin C]	7160
CCNC(=O)c1noc(-c2cc(C(C)C)c(O)cc2O)c1-c1ccc(CN2CCOCC2)cc1 [NVP-AUY922]	7.81
CC1(C)CCC(c2ccc(Cl)cc2)=C(CN2CCN(c3ccc(C(=O)NS(=O)(=O)c4ccc(N[C@H](CCN5CCOCC5)CSc5ccccc5)c(S(=O)(=O)C(F)(F)F)c4)cc3)CC2)C1 [Navitoclax]	235
O=C(CCCCCCC(=O)Nc1ccccc1)NO [Vorinostat]	1720

Tested on: MDA-MB-468
Settings: 72 h
Outline: as §1

SMILES	EC50, CellTiter-Blue viability [nM]
COc1ccc(S(=O)(=O)Nc2cccnc2Nc2ccc(O)cc2)cc1 [ABT-751]	748
CNC(=O)c1ccccc1Sc1ccc2c(/C=C/c3ccccn3)n[nH]c2c1 [Axitinib]	6660
COc1cc(Nc2c(C#N)cnc3cc(OCCCN4CCN(C)CC4)c(OC)cc23)c(Cl)cc1Cl [Bosutinib]	3180
Nc1ccn([C@@H]2O[C@H](CO)[C@@H](O)C2(F)F)c(=O)n1 [Gemcitabine]	13.5
C/C(=C\c1csc(C)n1)[C@@H]1C[C@@H]2O[C@]2(C)CCC[C@H](C)[C@H](O)[C@@H](C)C(=O)C(C)(C)[C@@H](O)CC(=O)N1 [Ixabepilone]	834
CO[C@@]12[C@H](COC(N)=O)C3=C(C(=O)C(C)=C(N)C3=O)N1C[C@@H]1N[C@@H]12 [Mitomycin C]	2270
O=C(CCCCCCC(=O)Nc1ccccc1)NO [Vorinostat]	1480

The next lines start with the values.

EC50, CellTiter-Blue viability [nM]	SMILES
53	CC(=O)[C@]1(O)Cc2c(O)c3c(c(O)c2[C@@H](O[C@H]2C[C@H](N)[C@H](O)[C@H](C)O2)C1)C(=O)c1ccccc1C3=O [Idarubicin]
797	C=CCn1c(=O)c2cnc(Nc3ccc(N4CCN(C)CC4)cc3)nc2n1-c1cccc(C(C)(C)O)n1 [MK1775]
490	CO[C@@H]1[C@H](N(C)C(=O)c2ccccc2)C[C@H]2O[C@]1(C)n1c3ccccc3c3c4c(c5c6ccccc6n2c5c31)C(=O)NC4 [Midostaurin]
7.89	CCNC(=O)c1noc(-c2cc(C(C)C)c(O)cc2O)c1-c1ccc(CN2CCOCC2)cc1 [NVP-AUY922]
109	CC1(C)CCC(c2ccc(Cl)cc2)=C(CN2CCN(c3ccc(C(=O)NS(=O)(=O)c4ccc(N[C@H](CCN5CCOCC5)CSc5ccccc5)c(S(=O)(=O)C(F)(F)F)c4)cc3)CC2)C1 [Navitoclax]

Tested on: HCC1143
Settings: 72 h
Outline: as §1

SMILES	EC50, CellTiter-Blue viability [nM]
COc1ccc(S(=O)(=O)Nc2cccnc2Nc2ccc(O)cc2)cc1 [ABT-751]	1780
CNC(=O)c1ccccc1Sc1ccc2c(/C=C/c3ccccn3)n[nH]c2c1 [Axitinib]	2570
COc1cc(Nc2c(C#N)cnc3cc(OCCCN4CCN(C)CC4)c(OC)cc23)c(Cl)cc1Cl [Bosutinib]	1440
Cn1cc(C2=C(c3cn(C4CCN(Cc5ccccn5)CC4)c4ccccc34)C(=O)NC2=O)c2ccccc21 [Enzastaurin]	418
Nc1ccn([C@@H]2O[C@H](CO)[C@@H](O)C2(F)F)c(=O)n1 [Gemcitabine]	9.03
C/C(=C\c1csc(C)n1)[C@@H]1C[C@@H]2O[C@]2(C)CCC[C@H](C)[C@H](O)[C@@H](C)C(=O)C(C)(C)[C@@H](O)CC(=O)N1 [Ixabepilone]	371
CO[C@@]12[C@H](COC(N)=O)C3=C(C(=O)C(C)=C(N)C3=O)N1C[C@@H]1N[C@@H]12 [Mitomycin C]	2380

Continued, values first:

EC50, CellTiter-Blue viability [nM]	SMILES
91.5	CC(=O)[C@]1(O)Cc2c(O)c3c(c(O)c2[C@@H](O[C@H]2C[C@H](N)[C@H](O)[C@H](C)O2)C1)C(=O)c1ccccc1C3=O [Idarubicin]
829	C=CCn1c(=O)c2cnc(Nc3ccc(N4CCN(C)CC4)cc3)nc2n1-c1cccc(C(C)(C)O)n1 [MK1775]
822	CO[C@@H]1[C@H](N(C)C(=O)c2ccccc2)C[C@H]2O[C@]1(C)n1c3ccccc3c3c4c(c5c6ccccc6n2c5c31)C(=O)NC4 [Midostaurin]
